Assay results taken from PubChem BioAssay (NCI).
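1) Cells in 96-well plates. 2) Compound, 48 h, 5 concentrations. 3) Linear interpolation between surrounding doses. 4) Unreached endpoint = highest concentration. GI50 marks 50% less growth. TGI: total growth inhibition.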

Test system: A549 NSCLC
Test: NCI tumour cell line growth inhibition, 48 h

Row | Structure (SMILES) | GI50 [µM] | TGI [µM]
1 | C#Cc1c(I)n(C2OC(CO[Si](C)(C)C(C)(C)C)C3OC(C)(C)OC32)c(=O)[nH]c1=O (stereo not drawn) | 49.6 | > 100
2 | CCSc1nc(SCC)c2cn[nH]c2n1 | 46.5 | > 100
3 | ClCC[N+]12CC[N+](CCCl)(CC1)C2 |  | > 100
4 | COc1cc(C(=O)c2cc(C)c3[nH]c4ccc(C)cc4c3c2C)cc(OC)c1OC | < 0.01 | > 100
5 | Cc1ccc2[nH]c(O)c(N=Nc3ccc(S(N)(=O)=O)cc3)c2c1 | 9.66 | > 25
6 | C/C(N=NC(=S)N(C)C)=C1\C=CC=CN1O |  | > 100
7 | C=C1CCC(CC[C@@H]2CC[C@]3(OC2)O[C@@]2(O)CC[C@]3(C)OC2(C)C)C(C)(C)[C@H]1C/C=C1/C(=O)OC[C@@H]1O (stereo partly drawn) |  | 19.4
8 | Cn1c(=O)c(Cc2ccccc2F)cc2cnc(NC3CCOCC3)nc21 | > 25 | > 25
9 | CC1(C)[C@@H](OC(N)=O)[C@H]2O[C@H]2[C@]2(C=O)[C@H]3CC[C@]4(C)[C@@H](c5ccc(=O)oc5)[C@@H](Cl)C[C@]4(O)C3=CC[C@@H]12 | 0.00442 | 0.00858
10 | CCCCON(OC(=O)c1ccc2ccc3cccc4ccc1c2c34)C(C)=O | 39.1 | > 100
11 | Cc1[nH]c2ccccc2c(=O)c1CC=C(Cl)Cl | 49.4 | > 100
12 | Clc1ccc(C=Nc2ccc3c(c2)Cc2ccccc2-3)c(Cl)c1 |  | > 100
13 | CN(C)CCN1C(=O)c2ccc3c4c(ccc(c24)C1=O)C(=O)N(CCN=C=S)C3=O | 0.0739 | 0.252
14 | O=C(/C=C\c1ccc(NCc2ccc(C(=O)O)cc2)cc1)CCl | 17.2 | 33
15 | COc1cccc(C#Cc2ccccc2C#CCCCCO)c1 | 4.21 | 17.3
16 | CC(C)C[C@H](NC(=O)/C=C/Cn1ccc2ccccc2c1=O)B(O)O | 5.35 | > 100
17 | CC1=C[C@H]2c3c(c(O)c(O)c4oc(-c5ccccc5)cc(=O)c34)[C@H](c3cc(O)c(O)c4oc(-c5ccccc5)cc(=O)c34)[C@H]2C(C)(C)C1 | 0.29 | 13.8

Test system: ACHN renal
Test: NCI tumour cell line growth inhibition, 48 h

Row | Structure (SMILES) | GI50 [µM] | TGI [µM]
18 | Nc1ccc(-c2nc3ccc(Cc4ccc5nc(-c6ccc(N)cc6)[nH]c5c4)cc3[nH]2)cc1 | 17.9 | 37.5
19 | O=S(=O)(Nc1cc(Sc2cccc3cccnc23)c(O)c2ccccc12)c1ccccc1 | 0.772 | 5.54
20 | CN(C)C(=O)[C@H](O)[C@H](Cc1ccccc1)NC(=O)c1cc2cc(Cl)ccc2[nH]1 | 22.2 | 60.8
21 | CC(C)(C[C@H]1CN(S(=O)(=O)c2cccc(C(F)(F)F)c2)c2cc(-c3cc(F)cc(OC(F)F)c3)ccc2O1)C(=O)O | 11.1 | 23.1
22 | Cc1ccc(-c2nc3ccc(Cl)cc3c(=O)n2N2C(=O)CSC2c2ccccc2Cl)cc1 (stereo not drawn) | 0.627 | > 100
23 | O=C(O)C1C(Br)(c2ccccc2)C1(Br)c1ccccc1 (stereo not drawn) |  | 57
24 | C#Cc1c(I)n(C2OC(CO[Si](C)(C)C(C)(C)C)C3OC(C)(C)OC32)c(=O)[nH]c1=O (stereo not drawn) | 17.8 | 39.7
25 | CCSc1nc(SCC)c2cn[nH]c2n1 | 44.3 | > 100
26 | ClCC[N+]12CC[N+](CCCl)(CC1)C2 |  | > 100
27 | COc1cc(C(=O)c2cc(C)c3[nH]c4ccc(C)cc4c3c2C)cc(OC)c1OC | < 0.01 | > 100
28 | Cc1ccc2[nH]c(O)c(N=Nc3ccc(S(N)(=O)=O)cc3)c2c1 | 9.74 | > 25
29 | C/C(N=NC(=S)N(C)C)=C1\C=CC=CN1O |  | > 100
30 | C=C1CCC(CC[C@@H]2CC[C@]3(OC2)O[C@@]2(O)CC[C@]3(C)OC2(C)C)C(C)(C)[C@H]1C/C=C1/C(=O)OC[C@@H]1O (stereo partly drawn) |  | 6.89
31 | Cn1c(=O)c(Cc2ccccc2F)cc2cnc(NC3CCOCC3)nc21 | > 25 | > 25
32 | CC1(C)[C@@H](OC(N)=O)[C@H]2O[C@H]2[C@]2(C=O)[C@H]3CC[C@]4(C)[C@@H](c5ccc(=O)oc5)[C@@H](Cl)C[C@]4(O)C3=CC[C@@H]12 | 0.00403 | 0.00892
33 | CCCCON(OC(=O)c1ccc2ccc3cccc4ccc1c2c34)C(C)=O | 21.7 | 51.6
